Measured values taken from patent publication US7799813B2, “Salts of substituted 5-membered azacycle and use thereof in the treatment of diseases related to protein aging” (Beijing Molecule Science and Technology Co., Ltd., priority 2006, dated 2010).

Legend:
[1] = test system: AGE-BSA-collagen cross-links; test: Elisa screening experiment on the breaking of AGE-BSA collagen cross-links; type: biochemical, rat; conditions: 37° C., 16 hours, OD 450 nm, averages of more than three screening results
Procedure: AGE cross-links were prepared in vitro by cross-linking AGE-BSA to rat tail tendon collagen-coated 96 well microtiter plates. ELISA method was used to evaluate the breaking effect of the compounds on AGE cross-links.
Normal Wister rats (body weight 200±20 g) were sacrificed acutely, then the tails were excised, and tail collagen was prepared at a temperature of 4° C. as follows: tail tendon collagen fibrils were taken out, washed with physiological saline, peeled off non-collagen fibril tissue, rinsed with distilled deionized water 3 times, cut into pieces, and immersed in 0.1% acetic acid at 4° C. for one week during which the immersion liquid was shaken frequently. Finally, the immersion liquid was subjected to a centrifuge treatment at 8000 G for 30 minutes, and supernatant collagen solution was collected. After dilution, protein content was measured. 96 well microtiter plates (Costar) were full-well coated with the collagen solution in an amount of 70 μg/well at 4° C. for 24 hours, then the coating solution was discarded. The plates were dried in air under sterile condition, coated with a fresh-keeping film, and finally stored at 4° C. for use.
A solution containing 50 mg/ml of bovine serum albumin BAS (V) (Roch) and 0.5M of glucose in 0.2M PBS (pH 7.4) was incubated at 37° C. under sterile condition for 3-4 months, to thereby form glycosylated BSA, i.e. BSA-AGE. At the same time, non-glycosylated BSA was prepared with glucose-free BSA. Then the BSA-AGE solution was dialyzed against 0.01M PBS (pH 7.4) to be removed of unreacted glucose. Fluorescence scanning (Exi/Em (395/460 nm)) and SDS-PAGE were used to check the formation of BSA-AGE, and protein concentration was determined by the Lowery method.
The tail collagen-coated 96 well microtiter plates were full-well treated with PBS (pH 7.4) for 1 hour to neutralize the acidic collagen. Then the plates were blocked with Superblock (PIERCE) at 37° C. for 1 hour, and washed with PBST (PBS-Tween) three times while shaking for 1 minute for each time of washing. AGE-BSA was diluted in PBS to a concentration required to obtain maximum cross-linking. 100 μl of the AGE-BSA solution was added to wells in the rows labeled as A, B, C, and D of the 96 well plates, and BSA solution of the same concentration was added to wells in the rows labeled as E, F, G, and H. The first three wells in each row were filled with PBS for the reagent blank. The plates were incubated at 37° C. for 4 hours to allow the collagen crosslink, and washed with PBST four times while shaking for 1 minute for each time of washing. Test compounds were diluted in PBS of pH 7.4. A test compound was added to quadruplicate AGE-BSA cross-links wells and quadruplicate BSA wells in an amount of 100 μl/well. PBS was added in an amount of 100 μl/well in the same way as non-breaking contrast. The plates were incubated at 37° C. for 16 hours and washed four times with PBST while shaking for 1 minute for each time of washing. 80 μl/well of Rabbit-anti-BSA antibody (1:500) was added to the wells and the plates were incubated at 37° C. for 50 minutes. After the plates were washed with PBST four times while shaking for 1 minute for each time of washing, 80 μl/well of horseradish peroxidase-labelled-goat-anti-rabbit IgG (1:1000) was added to the wells. The plates were incubated at 37° C. for 50 minutes, and then washed with PBST three times while shaking for 1 minute for each time of washing. 100 μl/well of TMB substrate (3,3′,5,5′-tetramethylbenzidine) was added to the wells. The plates were incubated at room temperature at dark place for 20 minutes. 2M H2SO4 was used to terminate the reaction. Within 10 minutes after the reaction, optical density was read at 450 nm on the BOBRAD Model 550 plate reader with the blank wells of the plates was set to 0.
The average optical density (OD) was calculated for each quadruplicate determination. […]

SMILES	melting point [°C]	Breaking rate (decrease % in OD) ([1]; test compound 0.1 mmol/L) [%]	Breaking rate (decrease % in OD) ([1]; test compound 1 mmol/L) [%]
Cc1sc[n+](CC(=O)OCc2ccccc2)c1C.[Br-] [Compound 1, 3-benzyloxycarbonylmethyl-4,5-dimethyl-thiazole-3-bromide]		9.65 ± 3.55	10.81 ± 3.86
Cc1sc[n+](CC(=O)c2ccccc2)c1C.[Cl-] [ALT-711, reference compound]		13.4 ± 6.41	15.2 ± 8.43
Cc1c(CCO)sc[n+]1CC(=O)OCc1ccccc1.[Br-] [Compound 2, 3-benzyloxycarbonylmethyl-5-(2-hydroxyethyl)-4-methyl-thiazole-3-bromide]		13.5 ± 9.53	13.25 ± 10.29
Cc1csc[n+]1CC(=O)OCc1ccccc1.[Br-] [Compound 3, 3-benzyloxycarbonylmethyl-4-methyl-thiazole-3-bromide]	217 to 218	16.16 ± 7.07	26.46 ± 18.2

Second part, led by results:

melting point [°C]	SMILES	Breaking rate (decrease % in OD) ([1]; test compound 0.1 mmol/L) [%]	Breaking rate (decrease % in OD) ([1]; test compound 1 mmol/L) [%]
160 to 166	O=C(C[n+]1csc2c1CCCC2)OCc1ccccc1.[Br-] [Compound 4, 3-benzyloxycarbonylmethyl-4,5,6,7-tetrahydro-benzothiazole-3-bromide]	8.45 ± 5.35	7.17 ± 2.40
223 to 230	Cc1csc[n+]1CC(=O)O.[Br-] [Compound 5, 3-carboxymethyl-4-methyl-thiazole-3-bromide]		
